Read-outs that look alike come from different tables or passages of the source.
What was measured:
lipoxygenase = biological target: T1, lipoxygenase (Rattus norvegicus, UniProt P12527); test: inhibition of lipoxygenase derived from rat basophilic leukemia (RBL-1) cells (L1 5,12-di-HETE and L2 5-HETE formation); assay type: biochemical; details: RBL-1 enzyme
T1 construct: Single cell suspensions of RBL-1 cells are homogenized to obtain the microsomal fraction containing lipoxygenase and cyclooxygenase; endogenous in cells; host or cells: RBL-1 (rat basophilic leukemia) cells, homogenate / microsomal fraction
T1 sequence (P12527 1-673): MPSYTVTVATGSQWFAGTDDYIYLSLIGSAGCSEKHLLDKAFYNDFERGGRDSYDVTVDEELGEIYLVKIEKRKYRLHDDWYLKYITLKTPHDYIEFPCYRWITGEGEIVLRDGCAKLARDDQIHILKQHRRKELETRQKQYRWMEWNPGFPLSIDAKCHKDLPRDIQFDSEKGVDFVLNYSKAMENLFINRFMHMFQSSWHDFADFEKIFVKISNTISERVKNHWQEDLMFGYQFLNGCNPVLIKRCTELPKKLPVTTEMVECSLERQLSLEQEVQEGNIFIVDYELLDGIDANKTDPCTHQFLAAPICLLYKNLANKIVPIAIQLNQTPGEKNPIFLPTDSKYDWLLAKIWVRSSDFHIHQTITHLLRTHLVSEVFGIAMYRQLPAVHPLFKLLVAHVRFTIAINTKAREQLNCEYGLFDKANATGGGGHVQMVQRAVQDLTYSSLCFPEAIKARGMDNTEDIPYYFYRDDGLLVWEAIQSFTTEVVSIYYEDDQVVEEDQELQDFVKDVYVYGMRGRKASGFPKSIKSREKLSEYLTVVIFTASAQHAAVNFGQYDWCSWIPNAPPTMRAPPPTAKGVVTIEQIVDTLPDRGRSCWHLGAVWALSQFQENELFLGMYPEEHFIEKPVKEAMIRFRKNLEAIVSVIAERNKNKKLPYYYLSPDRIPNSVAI
Procedure: (§1) The primary screening test used is a determination of the inhibition of lipoxygenase and cyclooxygenase derived from rat basophilic leukemia (RBL-1) cells. The test was carried out according to the following procedure:
(§2) Single cell suspensions of RBL-1 cells are homogenized to obtain the microsomal fraction containing lipoxygenase and cyclooxygenase. Test compounds are added to the enzyme-containing homogenate for a 5 min preincubation period at 37° C. prior to the addition of ^14 C-arachidonic acid substrate. Following incubation at 37° C. for 15 min, the reaction is stopped by the addition of 2M formic acid and the enzyme-substrate products are extracted into chloroform. An aliquot of the extract is evaporated to dryness, reconstituted in ether to 1/10 original volume, spotted on thin layer chromatography plates and chromatographed. The peak areas of radioactivity representing the products are located by scanning the plates. The quantity of products formed is estimated by measuring the height of the radioactivity peaks observed on the chromatographic scans. Alternatively, the areas of radioactivity are scraped from the plate and the ^14 C quantitated by scintillation counting. The percent inhibition in the formation of the cyclooxygenase product PGD2, designated as Cl and lipoxygenase products, L1 designated for 5,12-di-HETE and L2 for 5-HETE are shown. Compounds with >50% inhibition of L1 and L2 at a screening concentration of 1 μM are considered active.
(§3) ^(a) Percent inhibition of cyclooxygenase (C1) and lipoxygenase (L1
(§4) and L2) formation at a dose of 1 μM.
(§5) ^(b) Inhibitory concentration (μ M) in 50% of tests.

cyclooxygenase = biological target: T2, cyclooxygenase (Rattus norvegicus, UniProt Q63921); test: inhibition of cyclooxygenase derived from rat basophilic leukemia (RBL-1) cells (PGD2 formation, C1); assay type: biochemical; details: RBL-1 enzyme, read-out: % Inhibition C1 (cyclooxygenase product PGD2)
T2 construct: 14C-arachidonic acid substrate, PGD2 measured
T2 sequence (Q63921 27-602): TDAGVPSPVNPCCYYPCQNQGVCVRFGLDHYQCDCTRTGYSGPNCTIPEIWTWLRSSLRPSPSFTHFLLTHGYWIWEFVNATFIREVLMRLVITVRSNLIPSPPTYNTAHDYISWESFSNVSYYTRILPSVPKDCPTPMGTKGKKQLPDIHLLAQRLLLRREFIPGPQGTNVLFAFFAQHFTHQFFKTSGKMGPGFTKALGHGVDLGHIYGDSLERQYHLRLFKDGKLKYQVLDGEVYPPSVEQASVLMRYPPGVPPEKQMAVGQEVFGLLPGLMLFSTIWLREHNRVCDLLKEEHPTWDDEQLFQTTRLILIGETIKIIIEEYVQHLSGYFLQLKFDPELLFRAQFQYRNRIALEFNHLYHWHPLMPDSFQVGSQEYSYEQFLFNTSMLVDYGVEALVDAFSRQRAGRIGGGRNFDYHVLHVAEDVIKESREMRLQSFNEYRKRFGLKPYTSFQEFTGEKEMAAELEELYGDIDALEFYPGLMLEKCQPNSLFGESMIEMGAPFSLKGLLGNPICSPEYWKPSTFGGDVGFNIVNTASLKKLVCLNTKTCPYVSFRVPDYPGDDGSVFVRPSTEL
Procedure: as §1, §2, §3, §4, §5

[1] = system: SRS-A component of immunologically induced broncho-construction; test: effect on the SRS-A component of immunologically induced bronchoconstriction in guinea pigs; assay type: in vivo; details: i.v.; for ED50: Cavia porcellus, iv, guinea pig, indomethacin + chlorpheniramine medicated, arachidonic acid, antigen challenge, read-out: In vivo Guinea Pig ED50 i.v.
Procedure: The test was carried out according to the following procedure:
Two weeks after immunization with egg albumin, guinea pigs are prepared for bronchoconstruction determination. One hour prior to antigen challenge, each animal is dosed orally with idomethacin and chlorpheniramine. Animals are anesthetized with sodium pentobarbital, the trachea cannulated and the animal artifically respired. Arachidonic acid is administered intravenously prior to antigen challenge. The resulting bronchoconstruction is recorded by the standard lung overflow procedure and the peak increase in intratracheal pressure (mm Hg) over a 10 minute observation period is recorded. Compounds are evaluated for their ability to prevent the increased intratracheal pressure in an experimental group of animals as compared to the medicated (indomethacin+chlorpheniramine+arachidonic acid) control group. The results are expressed in terms of percent inhibition or as ED50 values (effective does in 50% of the animals).

[2] = L1 5,12-di-HETE, read-out: % Inhibition L1 (lipoxygenase product 5,12-di-HETE)
[3] = L2 5-HETE, read-out: % Inhibition L2 (lipoxygenase product 5-HETE)
[4] = L1 5,12-di-HETE, read-out: IC50 L1 (lipoxygenase product 5,12-di-HETE)
[5] = L2 5-HETE, read-out: IC50 L2 (lipoxygenase product 5-HETE)

CC(O)c1ccccc1Nc1ccc(O)cc1 (stereo not drawn) [Example 5c, 2-(4-Hydroxyphenylamino)-α-methylbenzenemethanol]
inhibition at 1 µM (lipoxygenase; [2]): 86% | inhibition at 1 µM (lipoxygenase; [3]): 99% | IC50 (lipoxygenase; [4]): 200 nM | IC50 (lipoxygenase; [5]): 180 nM | inhibition at 1 µM (cyclooxygenase): 14%

OCc1cc(Cl)ccc1Nc1ccc(O)cc1 [Example 3c, 5-Chloro-2-(4-hydroxyphenylamino)benzenemethanol]
ED50 [1]: 0.49 mg/kg | inhibition at 1 µM (lipoxygenase; [2]): 81% | inhibition at 1 µM (lipoxygenase; [3]): 99% | IC50 (lipoxygenase; [4]): 60 nM | IC50 (lipoxygenase; [5]): 40 nM | inhibition at 1 µM (cyclooxygenase): 6%

COc1ccc(Nc2ccc(O)cc2)c(C(C)O)c1 (stereo not drawn) [Example 6c, 2-(4-Hydroxyphenylamino)-5-methoxy-α-methylbenzenemethanol]
inhibition at 1 µM (lipoxygenase; [2]): 89% | inhibition at 1 µM (lipoxygenase; [3]): 98% | IC50 (lipoxygenase; [4]): 200 nM | IC50 (lipoxygenase; [5]): 160 nM | inhibition at 1 µM (cyclooxygenase): 2%

OCc1ccccc1Nc1ccc(O)cc1 [Example 2c, 2-(4-Hydroxyphenylamino)benzenemethanol]
ED50 [1]: 0.84 mg/kg | inhibition at 1 µM (lipoxygenase; [2]): 84% | inhibition at 1 µM (lipoxygenase; [3]): 94% | IC50 (lipoxygenase; [4]): 380 nM | IC50 (lipoxygenase; [5]): 280 nM | inhibition at 1 µM (cyclooxygenase): 4%

COc1ccc(N=C2C=CC(=O)C=C2)c(CO)c1 [Example 8, 4-(2-Hydroxymethyl-4-methoxyphenylimino)-2,5-cyclohexadien-1-one]
ED50 [1]: 0.12 mg/kg | inhibition at 1 µM (lipoxygenase; [2]): 85% | inhibition at 1 µM (lipoxygenase; [3]): 96% | IC50 (lipoxygenase; [4]): 190 nM | IC50 (lipoxygenase; [5]): 150 nM | inhibition at 1 µM (cyclooxygenase): 0%

OCc1ccc(Cl)cc1Nc1ccc(O)cc1 [Example 4c, 4-Chloro-2-(4-hydroxyphenylamino)benzenemethanol]
In vivo Guinea Pig percent inhibition ([1]; 0.3 mg/kg): 43% | In vivo Guinea Pig percent inhibition ([1]; 1-3 mg/kg): 63% | inhibition at 1 µM (lipoxygenase; [2]): 82% | inhibition at 1 µM (lipoxygenase; [3]): 100% | IC50 (lipoxygenase; [4]): 230 nM | IC50 (lipoxygenase; [5]): 160 nM | inhibition at 1 µM (cyclooxygenase): 24%

COc1ccc(Nc2ccc(O)cc2)c(CO)c1 [Example 1c, 2-(4-Hydroxyphenylamino)-5-methoxybenzenemethanol]
ED50 [1]: 0.13 mg/kg | inhibition at 1 µM (lipoxygenase; [2]): 88% | inhibition at 1 µM (lipoxygenase; [3]): 98% | IC50 (lipoxygenase; [4]): 200 nM | IC50 (lipoxygenase; [5]): 90 nM | inhibition at 1 µM (cyclooxygenase): 2%

Reference: US4496590A, “Benzyl alcohol derivatives, their preparation and use” (Sterling Drug Inc., priority 1983, dated 1985)
